Test results taken from patent US20030105010A1, “Crystals and structures of ArnB aminotransferases” (priority 2001, published 2003).

Experiments:
[1] = molecular target: T1, Salmonella typhimurium ArnB (Salmonella typhimurium, UniProt Q8ZNF3); assay: ArnB aminotransfer half-reaction assay (absorbance of PMP/PLP cofactor forms at 340 nm / 430 nm); format: biochemical; details: for conversion of ArnB from the E-PLP form back to the E•PMP form by amino donor: excess amino acid, decrease at 430 nm and increase at 340 nm; for observed rate constant of aminotransfer from L-methionine to E-PLP ArnB: enzyme concentration 23 μM, L-methionine concentration 20 mM
T1 construct: made in house; host or cells: E. coli BL21 (DE3), vector pSB3 (modified pET26b)
T1 sequence (Q8ZNF3 whole entry): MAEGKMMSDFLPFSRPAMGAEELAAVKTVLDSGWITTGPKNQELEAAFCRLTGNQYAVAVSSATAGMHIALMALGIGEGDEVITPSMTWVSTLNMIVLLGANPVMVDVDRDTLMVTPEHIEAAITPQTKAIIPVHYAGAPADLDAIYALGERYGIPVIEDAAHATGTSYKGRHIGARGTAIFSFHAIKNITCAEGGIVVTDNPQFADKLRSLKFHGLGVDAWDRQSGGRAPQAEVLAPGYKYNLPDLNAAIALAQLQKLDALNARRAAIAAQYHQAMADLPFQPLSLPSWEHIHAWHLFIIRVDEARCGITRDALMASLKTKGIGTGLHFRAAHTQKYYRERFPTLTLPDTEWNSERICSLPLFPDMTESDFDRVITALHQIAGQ
Experimental: Aminotransfer half-reactions were measured at an enzyme concentration of 23 μM and substrates were added to a final concentration of 250 μM, unless otherwise indicated. Reaction progress was followed by moniotoring the absorbance maxima of the PMP or PLP cofactor forms at 340 nm or 430 nm, respectively. Resulting time courses were fit to eq. 1, describing a single-exponential decay,
Yobs=((Y0−Y∞)e^−kt)+Y∞ (Eq. 1),
where Yobs=observed signal, Y0=signal at time zero, Y∞=signal at infinite time, k is the apparent first-order rate constant, and t is time. Nonlinear least-squares fits were performed with Kaleidagraph v3.51 (Synergy Software, Reading, Pa.).

[2] = molecular target: ArnB from E. coli K12 (Escherichia coli, UniProt P77690); details: compared with L-glutamate; cited from earlier work
Sequence of ArnB from E. coli K12 (P77690 whole entry): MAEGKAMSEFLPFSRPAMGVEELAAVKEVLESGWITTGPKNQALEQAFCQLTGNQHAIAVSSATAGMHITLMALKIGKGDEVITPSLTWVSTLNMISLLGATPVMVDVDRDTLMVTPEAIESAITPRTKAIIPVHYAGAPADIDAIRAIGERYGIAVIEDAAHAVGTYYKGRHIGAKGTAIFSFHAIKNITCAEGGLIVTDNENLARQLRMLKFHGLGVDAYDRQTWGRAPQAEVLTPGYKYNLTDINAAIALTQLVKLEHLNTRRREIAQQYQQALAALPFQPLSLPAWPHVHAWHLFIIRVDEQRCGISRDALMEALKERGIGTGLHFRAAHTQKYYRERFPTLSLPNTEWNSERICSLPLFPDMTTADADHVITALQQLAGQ

[3] = molecular target: T1, Salmonella typhimurium ArnB; assay: L-cycloserine inhibition of ArnB followed by cofactor absorbance spectrum; format: biochemical

Q: For `O=C(O)CCCC(=O)C(=O)O` [α-Ketoadipate], which “reduction in aminotransfer rate from that of α-ketoglutarate” value ([1]; E•PMP to E-PLP conversion, absorbance increase at 430 nm, α-ketoacid as amino acceptor substrate) is on record?
A: The value was 3 fold.

Q: Which “conversion of ArnB from the E-PLP form back to the E•PMP form by amino donor” value (“conversion of ArnB” below) [1] does the source give for `N[C@@H](CCC(=O)O)C(=O)O` [L-glutamate] here?
A: The value was “fastest L-amino acid tested”.

Q: Which “conversion of ArnB” value [1] does the source give for `N[C@@H](CC(=O)O)C(=O)O` (single isomer, unassigned) [L-isomer of aspartic acid] here?
A: The value was “slower rate than L-methionine”.

Q: Which “conversion of ArnB” value [1] does the source give for `CSCC[C@@H](N)C(=O)O` (single isomer, unassigned) [D-isomer of methionine] here?
A: The value was “no such effect”.

Q: With `CSCC[C@H](N)C(=O)O` [L-methionine] as the molecule, how does the “conversion of ArnB” value [1] read?
A: The value was “readily converted”.

Q: And the “observed rate constant of aminotransfer from L-methionine to E-PLP ArnB” value ([1]; measured at 340 nm)?
A: Its value is 0.065 ± 0.014 min⁻¹.

Q: And the “observed rate constant of aminotransfer from L-methionine to E-PLP ArnB” value ([1]; measured at 430 nm)?
A: Its value is 0.051 ± 0.013 min⁻¹.

Q: With `NC(=O)CC[C@H](N)C(=O)O` [L-glutamine] as the molecule, how does the “use as amino donor substrate” value [2] read?
A: Its value is “less efficiently than with L-glutamate”.

Q: With `N[C@H]1CONC1=O` [L-cycloserine] as the molecule, how does the “reaction with ArnB in the E-PMP form” value ([3]; E-PMP enzyme form) read?
A: Its value is “did not react”.

Q: What about the “inactivation of E-PLP ArnB” value ([3]; excess L-cycloserine, loss of 430 nm internal aldimine peak, appearance of peak centered at 334 nm) of the same molecule?
A: Its value is “rapidly inactivated”.
